For one assay, the system named is C2C12 myotubes. The assay is described as follows: Mitochondrial respiration in C2C12 myotubes (Seahorse XF96, fatty acid oxidation analysis). The assay is classed as cell-based, Mouse. The settings on record: 50 uM, 24 hours (FIG. 1). The method, then: A combined treatment of urolithin A and trigonelline was performed and mitochondrial respiration was measured in rodent skeletal muscle cells.
Fatty acid oxidation analysis on C2C12 myotubes was measured with a Seahorse XF96 extracellular flux analyzer. C2C12s were seeded at 8,000 cells/well in an XF96 cell culture microplate. Once cells reached confluence, they were differentiated with DMEM (Gibco, 31966047) supplemented with 2% Horse serum, 1% PenStrep and 1% Hepes for 5 days. Cells were treated with UA 50 uM and Trigonelline 50 uM (Sigma, T5509) for 24 hours in substrate-limited media (Gibco, A1443001) supplemented with 0.5 mM glucose, 1 mM glutamine, 1% Oleic acid and 0.5 mM L-Carnitine. Maximal respiration was monitored by injection of 3 μM FCCP in the cartridge. Prior to the assay, cells were incubated in a Fatty acid oxidation medium (111 mM NaCl, 4.7 mM KCl, 1.25 mM CaCl2, 2 mM MgSO4, 1.2 mM NaH2PO4, 5 mM L-Carnitine, 5 mM Hepes, 2.5 mM Glucose) for 20 min, solution must be adjusted to pH 7.4 at 37 °C.

Assay [1] relates to HSMM human primary skeletal muscle myoblasts. The assay is described as follows: Mitochondrial respiration (oxygen consumption rate) in human primary skeletal muscle myoblasts HSMM (Seahorse XF96). The assay is classed as cell-based. The settings on record: 24 hours, normalized over cellular DNA content. The method, then: Cells were treated as indicated with Urolithin A (UA) 6.25 uM and trigonelline (Trig) 500 uM, alone or in combination. DMSO 0.1% was used as control. Data are expressed as mean+/−SD. One-Way ANOVA, * p.val.<0.05.
A combined treatment of urolithin A and trigonelline was performed and mitochondrial respiration was measured in human primary skeletal muscle cells.
Mitochondrial respiration was measured as oxygen consumption rate on HSMM (LZ-CC-2580, Lonza), human primary skeletal muscle myoblasts was measured with a Seahorse XF96 extracellular flux analyzer. HSMMs were seeded at 3,500 cells/well in an XF96 cell culture microplate and cultured at 37 °C in a humidified atmosphere of 5% C02 in SKM-M Growth medium (AMSbio). […] Oxygen consumption rate was measured in Krebs Cycle medium (135 mM NaCl, KCL 3.6 mM, 0.5 mM NaH2PO4, 0.5 mM MgSO4, 10 mM HEPES, 5 mM NaHCO3) supplemented with 10 mM Glucose, 10 mM pyruvate and 2 mM Glutamine. Maximal respiration was monitored by injection of 6 μM FCCP in the cartridge. To normalize for differences in cell number across well, cellular DNA content was measured in the same microplate using the CyQuant NF kit (Thermofisher, C35006), following the manufacturer's instructions. Normalized mitochondrial respiration was then calculated as ratio between oxygen consumption rate and DNA content and expressed as fold change over the DMSO of the basal condition.

Another assay concerns C2C12 muscle cell line. The settings on record: Ryu, D. et al. Nature Medicine 2016, 22, 879; cited from earlier work.
The next assay has as its system human cells. The following applies: at this dose (50 uM); FIG. 1 of US 2022/0241259 A1; cited from earlier work.
In the next assay the test system is HSMM myotubes. The following applies: only at 1000 uM, 72 h, with simultaneous blocking of NAD+ salvage pathway with FK866; cited from earlier work.
The next assay relates to skeletal muscle cells. The settings on record: cited from earlier work.
The next assay relates to rodent tissues. The settings on record: in vivo; cited from earlier work.
For the next assay, the system named is C. elegans. The following applies: in vivo; cited from earlier work.
A further assay has as its system muscle mass. The following applies: in vivo; cited from earlier work.

On to `O=c1oc2cc(O)ccc2c2ccc(O)cc12` [Urolithin A, urolithin A], for which the mitochondrial respiration result is “induced mitochondrial respiration” with C2C12 myotubes (urolithin A alone); “induced mitochondrial respiration” in assay [1] (urolithin A alone, 6.25 uM); “induced mitochondrial respiration as shown previously in the C2C12 muscle cell line” with C2C12 muscle cell line.

Regarding `C[n+]1cccc(C(=O)[O-])c1` [trigonelline], the mitochondrial respiration entry was “Mitochondrial respiration was also increased” in the assay on C2C12 myotubes (trigonelline alone) and “Mitochondrial respiration was also increased” in assay [1] (trigonelline alone, 500 uM). For the same compound, the “biological effect on NAD production in human cells” value in the assay on human cells is “not shown to have a significant biological effect on NAD production”. Moreover, the “mitochondrial respiration in HSMM myotubes” value in the assay with HSMM myotubes was “improvement in mitochondrial respiration”. In the assay on skeletal muscle cells, the “NAD^+ levels in skeletal muscle cells” value is “help to increase NAD^+ levels”. For the same compound, the “NAD^+ levels in rodent tissues” value in the assay on rodent tissues is on record as “help to increase NAD^+ levels”. Moreover, the “lifespan in C. elegans models” value in the assay on C. elegans was “increase lifespan”. Besides, the “muscle mass in rodents” value in the assay with muscle mass is given as “induce muscle mass”.

The record behind these values is patent US20260355147A1, “COMPOSITIONS COMPRISING TRIGONELLINE AND A UROLITHIN” (Amazentis SA, priority 2023, published 2026).
